# Measurements: patent publication US20220135567A1, “TYK2 PSEUDOKINASE LIGANDS” (Ventyx Biosciences, Inc., priority 2019, published 2022)
# Test system: IFN-a/Jak1Tyk2
# Test: Co-stimulation assay in lysed whole blood: IFNa (JAK1/TYK2) stimulated STAT1 phosphorylation
# Format: cell-based
# Details: 20 min, lysed human whole blood, IFNa 100 ng/mL + GM-CSF 10 ng/mL, pSTAT1 by flow cytometry
# Procedure, shortened: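 Red-cell-lysed human whole blood, pretreated with compound for 1 h at 37°C, was stimulated 20 min at 37°C with IFNa (100 ng/mL final) plus GM-CSF (10 ng/mL final). Cells were then fixed/lysed, permeabilised in Perm Buffer III and stained overnight for pSTAT1 (PE) and pSTAT5. Read-out by flow cytometry.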
row,SMILES,IC50
1,"CNc1cc(Nc2cccn(-c3cccc(C)n3)c2=O)nc2c(C(=O)NC3CC(C#N)C3)cnn12 (stereo not drawn) [Compound 99, N-(3-cyanocyclobutyl)-5-((6′-methyl-2-oxo-2H-[1,2′-bipyridin]-3-yl)amino)-7-(methylamino)pyrazolo[1,5-a]pyrimidine-3-carboxamide]",1000 to 10000 nM
2,"CNc1cc(Nc2cccn(-c3cccc(C)n3)c2=O)nc2c(C(=O)NC3CC(O)C3)cnn12 (stereo not drawn) [Compound 100, N-(3-hydroxycyclobutyl)-5-((6′-methyl-2-oxo-2H-[1,2′-bipyridin]-3-yl)amino)-7-(methylamino)pyrazolo[1,5-a]pyrimidine-3-carboxamide]",1000 to 10000 nM
3,"CNc1cc(Nc2cccn(-c3ccc(OC)nn3)c2=O)nc2c(C(=O)NCC(C)(C)O)cnn12 [Compound 103, N-(2-hydroxy-2-methylpropyl)-5-((1-(6-methoxypyridazin-3-yl)-2-oxo-1,2-dihydropyridin-3-yl)amino)-7-(methylamino)pyrazolo[1,5-a]pyrimidine-3-carboxamide]",1000 to 10000 nM
4,"CNc1cc(Nc2cccn(-c3ccc(OC)nn3)c2=O)nc2c(C(=O)NC3CC(O)C3)cnn12 (stereo not drawn) [Compound 104, N-(3-hydroxycyclobutyl)-5-((1-(6-methoxypyridazin-3-yl)-2-oxo-1,2-dihydropyridin-3-yl)amino)-7-(methylamino)pyrazolo[1,5-a]pyrimidine-3-carboxamide]",100 to 1000 nM
5,"CNc1cc(Nc2cccn(-c3ccc(OC)nn3)c2=O)nc2c(C(=O)NCC(C)(O)CO)cnn12 (stereo not drawn) [Compound 105, N-(2,3-dihydroxy-2-methylpropyl)-5-((1-(6-methoxypyridazin-3-yl)-2-oxo-1,2-dihydropyridin-3-yl)amino)-7-(methylamino)pyrazolo[1,5-a]pyrimidine-3-carboxamide]",> 3000 nM
6,"CNc1cc(Nc2cccn(-c3ccc(OC)nn3)c2=O)nc2c(C(=O)NC3CCOC3)cnn12 (stereo not drawn) [Compound 106, 5-((1-(6-methoxypyridazin-3-yl)-2-oxo-1,2-dihydropyridin-3-yl)amino)-7-(methylamino)-N-(tetrahydrofuran-3-yl)pyrazolo[1,5-a]pyrimidine-3-carboxamide]",100 to 1000 nM
7,"CNc1cc(Nc2cccn(-c3cccc(C)n3)c2=O)nc2c(C(=O)N[C@H]3C[C@H]3F)cnn12 [Compound 111, N-((1S,2R)-2-fluorocyclopropyl)-5-((6′-methyl-2-oxo-2H-[1,2′-bipyridin]-3-yl)amino)-7-(methylamino)pyrazolo[1,5-a]pyrimidine-3-carboxamide]",< 100 nM
8,"CNc1cc(Nc2cccn(-c3cccc(C)n3)c2=O)nc2c(C(=O)NC3CCC3)cnn12 [Compound 112, N-cyclobutyl-5-((6′-methyl-2-oxo-2H-[1,2′-bipyridin]-3-yl)amino)-7-(methylamino)pyrazolo[1,5-a]pyrimidine-3-carboxamide]",< 100 nM
9,"CNc1cc(Nc2cccn(C)c2=O)nc2c(C(=O)NC3CCC3)cnn12 [Compound 113, N-cyclobutyl-5-((1-methyl-2-oxo-1,2-dihydropyridin-3-yl)amino)-7-(methylamino)pyrazolo[1,5-a]pyrimidine-3-carboxamide]",< 100 nM
10,"CNc1cc(Nc2cccn(-c3ccccn3)c2=O)nc2c(C(=O)NC3CCC3)cnn12 [Compound 114, N-cyclobutyl-7-(methylamino)-5-((2-oxo-2H-[1,2′-bipyridin]-3-yl)amino)pyrazolo[1,5-a]pyrimidine-3-carboxamide]",< 100 nM
11,"CNc1cc(Nc2cccn(-c3ccccn3)c2=O)nc2c(C(=O)N[C@H]3C[C@H]3F)cnn12 [Compound 115, N-((1S,2R)-2-fluorocyclopropyl)-7-(methylamino)-5-((2-oxo-2H-[1,2′-bipyridin]-3-yl)amino)pyrazolo[1,5-a]pyrimidine-3-carboxamide]",< 100 nM
12,"CNc1cc(Nc2cnn(C3CCNC3=O)c2)nc2c(C(=O)NC3CC3)cnn12 (stereo not drawn) [Compound 116, N-cyclopropyl-7-(methylamino)-5-((1-(2-oxopyrrolidin-3-yl)-1H-pyrazol-4-yl)amino)pyrazolo[1,5-a]pyrimidine-3-carboxamide]",1000 to 10000 nM

# Now from value to compound:
row,IC50,SMILES
1,< 100 nM,"[2H]C([2H])([2H])n1cccc(Nc2cc(NC)n3ncc(C(=O)NC4CCC4)c3n2)c1=O [Compound 93, N-cyclobutyl-5-((1-(methyl-d3)-2-oxo-1,2-dihydropyridin-3-yl)amino)-7-(methylamino)pyrazolo[1,5-a]pyrimidine-3-carboxamide]"
2,< 100 nM,"[2H]C([2H])([2H])Nc1cc(Nc2cccn(C)c2=O)nc2c(C(=O)NC3CCC3)cnn12 [Compound 94, N-cyclobutyl-5-((1-methyl-2-oxo-1,2-dihydropyridin-3-yl)amino)-7-((methyl-d3)amino)pyrazolo[1,5-a]pyrimidine-3-carboxamide]"
3,< 100 nM,"CNc1cc(Nc2cccc3c2OCCO3)nc2c(C(=O)NC3(C#N)CC3)cnn12 [Compound 95, N-(1-cyanocyclopropyl)-5-((2,3-dihydrobenzo[b][1,4]dioxin-5-yl)amino)-7-(methylamino)pyrazolo[1,5-a]pyrimidine-3-carboxamide]"
4,< 100 nM,"CNc1cc(Nc2cccc3c2OCCO3)nc2c(C(=O)NC3CCC3)cnn12 [Compound 96, N-cyclobutyl-5-((2,3-dihydrobenzo[b][1,4]dioxin-5-yl)amino)-7-(methylamino)pyrazolo[1,5-a]pyrimidine-3-carboxamide]"
5,< 100 nM,"CNc1cc(Nc2cccc3c2OCCO3)nc2c(C(=O)NC3C[C@@H]3F)cnn12 (stereo partly drawn) [Compound 97, 5-((2,3-dihydrobenzo[b][1,4]dioxin-5-yl)amino)-N-((2S)-2-fluorocyclopropyl)-7-(methylamino)pyrazolo[1,5-a]pyrimidine-3-carboxamide]"
6,< 100 nM,"[2H]C([2H])([2H])Nc1cc(Nc2cc(F)cc3c2OCCO3)nc2c(C(=O)NCC(C)(C)CO)cnn12 [Compound 98, 5-((7-fluoro-2,3-dihydrobenzo[b][1,4]dioxin-5-yl)amino)-N-(3-hydroxy-2,2-dimethylpropyl)-7-((methyl-d3)amino)pyrazolo[1,5-a]pyrimidine-3-carboxamide]"
7,< 100 nM,"CNc1cc(Nc2cccn(-c3ccc(OC)nn3)c2=O)nc2c(C(=O)N[C@@H]3C[C@@H]3F)cnn12 [Compound 101, N-((1R,2S)-2-fluorocyclopropyl)-5-((1-(6-methoxypyridazin-3-yl)-2-oxo-1,2-dihydropyridin-3-yl)amino)-7-(methylamino)pyrazolo[1,5-a]pyrimidine-3-carboxamide]"
8,< 100 nM,"CNc1cc(Nc2cccc3c2OCCO3)nc2c(C(=O)NC3CC(O)C3)cnn12 (stereo not drawn) [Compound 102, 5-((2,3-dihydrobenzo[b][1,4]dioxin-5-yl)amino)-N-(3-hydroxycyclobutyl)-7-(methylamino)pyrazolo[1,5-a]pyrimidine-3-carboxamide]"
9,< 100 nM,"CNc1cc(Nc2cccn(C)c2=O)nc2c(C(=O)N[C@H]3C[C@H]3F)cnn12 [Compound 107, N-((1S,2R)-2-fluorocyclopropyl)-5-((1-methyl-2-oxo-1,2-dihydropyridin-3-yl)amino)-7-(methylamino)pyrazolo[1,5-a]pyrimidine-3-carboxamide]"
10,< 100 nM,"CCOc1ccc(-n2cccc(Nc3cc(NC)n4ncc(C(=O)NC5CCC5)c4n3)c2=O)nn1 [Compound 108, N-cyclobutyl-5-((1-(6-ethoxypyridazin-3-yl)-2-oxo-1,2-dihydropyridin-3-yl)amino)-7-(methylamino)pyrazolo[1,5-a]pyrimidine-3-carboxamide]"
11,< 100 nM,"CNc1cc(Nc2cc(F)cc3c2OCCO3)nc2c(C(=O)NCC(C)(C)CO)cnn12 [Compound 109, 5-((7-fluoro-2,3-dihydrobenzo[b][1,4]dioxin-5-yl)amino)-N-(3-hydroxy-2,2-dimethylpropyl)-7-(methylamino)pyrazolo[1,5-a]pyrimidine-3-carboxamide]"
12,< 100 nM,"CNc1cc(Nc2cccn(-c3ccnc(C)n3)c2=O)nc2c(C(=O)NC3CCC3)cnn12 [Compound 110, N-cyclobutyl-7-(methylamino)-5-((1-(2-methylpyrimidin-4-yl)-2-oxo-1,2-dihydropyridin-3-yl)amino)pyrazolo[1,5-a]pyrimidine-3-carboxamide]"
